What all share (assay type): cell-based
Experiment [1] relates to IL-17A. Description: IL-17 release from differentiated primary human T-cells (IL-17A HTRF assay). To be noted: primary human CD4+ T cells differentiated into Th17 cells, 45-hour incubation, IL-17A in supernatant; read-out: hIL17 IC50. In outline: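 Primary human CD4+ T cells (~2×10^5/well) given compound (2–500 or 4–1000 nM, 0.1% DMSO), CD3/CD28-activated and Th17-differentiated (TGF-β, IL-6, IL-23, IL-1β) for 45 h at 37° C. Supernatant IL-17A by HTRF against standard curve, normalized to vehicle; IC50 by variable-slope regression, with parallel CyQuant viability.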
(In general: In TR-FRET formats the signal depends on donor and acceptor labels being close together.)

For experiment [2], the target named is T1, Human RAR-related Orphan Receptor Gamma (RORγ) (Homo sapiens, UniProt P51449).
T1 sequence (P51449 269-508 limits assumed): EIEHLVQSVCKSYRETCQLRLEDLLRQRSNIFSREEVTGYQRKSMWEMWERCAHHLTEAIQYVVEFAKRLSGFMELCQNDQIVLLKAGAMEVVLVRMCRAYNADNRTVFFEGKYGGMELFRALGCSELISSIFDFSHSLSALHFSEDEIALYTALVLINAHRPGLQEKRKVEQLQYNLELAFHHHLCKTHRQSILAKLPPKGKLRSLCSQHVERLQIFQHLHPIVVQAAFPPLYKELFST
Description: RORγ assay (GAL4-RORγ hybrid luciferase reporter, Indigo Biosciences). The following applies: inverse-agonist activity, GAL4-RORγ reporter cells, 23 hours. The procedure, abridged:
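[…]engineered human reporter cell line expressing GAL4-DBD/RORγ-LBD hybrid with GAL4-UAS luciferase; constitutive activity measured as inverse agonism. Cells treated with compound (7.8-2000 nM) for 23 h at 37 °C; luminescence normalized to DMSO, IC50 by variable-slope fit, with parallel viability readout to flag non-specific inhibition.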
For orientation: Reporter assays use an easily measured gene product as a stand-in for the process of interest.

Experiment [3] has as its system Nrf2 transcription factor. Description: AREc32 luciferase reporter assay. To be noted: Homo sapiens; AREc32 cells, 19 hours; concentration required to increase GST ARE luciferase reporter activity by 2-fold; read-out: NRF2 ARE 2-Fold (EC2×). In outline: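 AREc32 cells (MCF-7 with firefly luciferase under eight rat GSTA2 ARE copies) treated 19 h with compound (0.4-200 nM or 3.9-2000 nM) in triplicate. Luminescence normalized to DMSO as fold-induction, capped at 50-fold. EC2× = concentration giving 2-fold reporter increase, interpolated from variable-slope fit.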

The structures appear in SMILES notation.

With `C[C@H]1C(=O)C(C#N)=C[C@@]2(C)c3nc(-c4cccc(-c5cnn(C)c5)c4)n(-c4cccc(F)c4)c3CC[C@H]12` [T149], the IC50 (in general, the concentration that gives 50% inhibition) in experiment [1] came out at 129 nM; in experiment [2] it was 159 nM. In experiment [3], the EC (2-fold) came to 0.687 µM.
The like results for `C[C@H]1C(=O)C(C#N)=C[C@@]2(C)c3c(c(-c4ccncn4)nn3-c3ccc(-c4cccnc4)cn3)CC[C@H]12` [T57] were, in that order, 67 nM, 96 nM and 0.403 µM.
The corresponding values for `C[C@H]1C(=O)C(C#N)=C[C@@]2(C)c3nc(-c4cccc(-c5ccccc5)c4)n(-c4cccnc4)c3CC[C@H]12` [T155] are 161 nM, 201 nM and 0.738 µM.
The corresponding values for `Cc1cc(-c2ccc(-n3nc(-c4ccccc4F)c4c3[C@]3(C)C=C(C#N)C(=O)[C@H](C)[C@H]3CC4)cc2)cnn1` [T83] are 20 nM, 33 nM and 0.139 µM.
In the case of `Cc1nc(-c2ccc(-n3nc(-c4ccc(F)cc4)c4c3[C@]3(C)C=C(C#N)C(=O)[C@H](C)[C@H]3CC4)cc2)no1` [T182], the figures for the IC50 in experiment [1] and in experiment [2] were 32 nM and 96 nM, respectively. In experiment [3], the EC (2-fold) is 0.249 µM.
For `C[C@H]1C(=O)C(C#N)=C[C@@]2(C)c3c(c(-c4ccncn4)nn3-c3ccc(-c4cccc(CO)c4)cn3)CC[C@H]12` [T60], the IC50 in experiment [1] was 141 nM; in experiment [2], 101 nM. Further, the EC (2-fold) in experiment [3] came to 0.44 µM.
Take `C[C@H]1C(=O)C(C#N)=C[C@@]2(C)c3c(c(-c4ccccc4F)nn3-c3nc4cc(C(F)(F)F)ccc4s3)CC[C@H]12` [T88]: the IC50 in experiment [1] is 11 nM; in experiment [2], 219 nM. Moreover, the EC (2-fold) in experiment [3] worked out at 0.743 µM.
For the compound `C[C@H]1C(=O)C(C#N)=C[C@@]2(C)c3nn(-c4ccc(-c5ccccc5)cc4)c(-c4cccnc4)c3CC[C@H]12` [T125], the IC50 in experiment [1] came to 86 nM; in experiment [2], 137 nM. Further, the EC (2-fold) in experiment [3] amounted to 0.877 µM.
In the case of `C[C@H]1C(=O)C(C#N)=C[C@@]2(C)c3c(c(-c4ccncn4)nn3-c3ccc(-c4cccc(F)c4)cn3)CC[C@H]12` [T58], the figures for the IC50 in experiment [1] and in experiment [2] were 43 nM and 128 nM, respectively. For the same compound, the EC (2-fold) in experiment [3] was 0.355 µM.
The corresponding values for `CC(C)c1cccc(-c2nc3c(n2-c2cccc(F)c2)CC[C@@H]2[C@@H](C)C(=O)C(C#N)=C[C@@]32C)c1` [T138] are 201 nM, 284 nM and 0.941 µM.
The like results for `C[C@H]1C(=O)C(C#N)=C[C@@]2(C)c3nc(-c4ccc(-c5ccccc5)cc4)n(-c4cccnc4)c3CC[C@H]12` [T152] were, in that order, 131 nM, 188 nM and 1.16 µM.
The like results for `C[C@H]1C(=O)C(C#N)=C[C@@]2(C)c3nn(-c4cccc(-c5ccccc5)c4)c(-c4ccncn4)c3CC[C@H]12` [T121] were, in that order, 85 nM, 242 nM and 1.07 µM.
Regarding `C[C@H]1C(=O)C(C#N)=C[C@@]2(C)c3c(c(-c4ccccc4F)nn3-c3nnc(-c4ccccc4)n3C)CC[C@H]12` [T86], the IC50 was 88 nM in experiment [1] and 351 nM in experiment [2]. In addition, the EC (2-fold) in experiment [3] stood at 1.48 µM.
The like results for `Cc1ccccc1-c1nn(-c2ccc(-c3ccccc3)cc2)c2c1CC[C@@H]1[C@@H](C)C(=O)C(C#N)=C[C@@]21C` [T72] were, in that order, 10 nM, 138 nM and 0.205 µM.
The like results for `CC(C)c1cccc(-c2nn(-c3ccc(-c4ccccc4)cc3)c3c2CC[C@@H]2[C@@H](C)C(=O)C(C#N)=C[C@@]32C)c1` [T71] were, in that order, 9 nM, 294 nM and 0.257 µM.
The like results for `C[C@H]1C(=O)C(C#N)=C[C@@]2(C)c3nc(-c4ccc(N(C)C)cc4)n(-c4cccc(F)c4)c3CC[C@H]12` [T132] were, in that order, 114 nM, 110 nM and 1.02 µM.
As for `C[C@H]1C(=O)C(C#N)=C[C@@]2(C)c3c(c(-c4ccncn4)nn3-c3ccc(-c4ccnc(CF)c4)cc3)CC[C@H]12` [T54], the IC50 was determined as 33 nM in experiment [1] and 52 nM in experiment [2]. In experiment [3], the EC (2-fold) was 0.355 µM.
Consider `COc1ccc(-n2nc(-c3ccccc3)c3c2[C@]2(C)C=C(C#N)C(=O)[C@H](C)[C@H]2CC3)cc1` [T14], for which the IC50 in experiment [1] amounted to 57 nM; in experiment [2], 60 nM. Further, the EC (2-fold) in experiment [3] was 0.147 µM.

Source of the values: patent US11993574B2, “Pyrazole and imidazole compounds for inhibition of IL-17 and RORgamma” (REATA PHARMACEUTICALS, INC., priority 2018, dated 2024).
